Here are results for 15 compounds from publication doi:10.1101/2021.04.29.441652v1 (biorxiv, 2021).

Bounds are passed on as bounds.

In assay [1] the target is T1, human σ2 receptor (TMEM97) (Homo sapiens, UniProt Q5BJF2). The assay is described as follows: [3H]-DTG competition binding, Expi293 membranes.
Assay [2] deals with T1, human σ2 receptor (TMEM97). Put plainly: [3H]-DTG competition binding, Expi293 membranes. The source holds these as a separate data set.
Assay [3] deals with T1, human σ2 receptor (TMEM97). Put plainly: biochemical. The assay is classed as Expi293 membranes.
Assay [4] has as its target T1, human σ2 receptor (TMEM97). The assay is described as follows: biochemical. Type of assay: Expi293 membranes. The conditions noted are these: read-out: % of control remaining.
[5] abbreviates: 10 nM [3H]-DTG, 50 mM Tris pH 8.0, 37 °C, 90 min.

T1 sequence (Q5BJF2 whole entry): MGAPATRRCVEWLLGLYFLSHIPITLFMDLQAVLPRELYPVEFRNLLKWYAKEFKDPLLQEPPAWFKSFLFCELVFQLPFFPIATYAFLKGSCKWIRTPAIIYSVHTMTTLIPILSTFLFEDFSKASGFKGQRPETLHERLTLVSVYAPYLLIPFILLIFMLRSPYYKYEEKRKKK

For `c1ccc(CCCN2CCC(c3nnc4ccccn34)CC2)cc1` [Z163048780], in assay [1], the Ki (in general, the equilibrium dissociation constant of an inhibitor or competing ligand from its target) was above 10000 nM.

In assay [2], `C1=C(c2c[nH]c3ccccc23)CCN(CCCc2ccccc2)C1` [Z295861754] showed an inhibitory constant (Ki) of 57 nM.

Turning to `C1=C(c2c[nH]c3ncccc23)CCN(CCCc2ccccc2)C1` [Z1241145220], in assay [1] (setting [5]), affinity was put at a Ki of 3.7 nM.

In the case of `OC(CCc1ccccc1)CN1CC=C(c2c[nH]c3ncccc23)CC1` (stereo not drawn) [Z1665845742], in assay [1] (setting [5]), the affinity corresponds to a Ki of 5 nM.

`CC1CC(CN2CC(N3CCN(C(=O)[C@H](C)C4CCCC4)CC3)C2)C1` (stereo partly drawn) [ZINC000941634458] came in with a Ki in assay [3] of 20.3 nM. For the same compound, the remaining activity at 1 µM in assay [4] is 12.7%.

As for `CCc1nnsc1C(=O)N[C@H]1[C@@H]2CN(CC3CCCCCC3)C[C@@H]21` [ZINC000960887654], the Ki in assay [3] was found to be 18.1 nM. Moreover, the remaining activity at 1 µM in assay [4] is 12.9%.

As to `Fc1ccccc1[C@H]1CCN(CC#Cc2cccc(Cl)c2)C1` [ZINC001170548029], affinity in assay [3] was put at a Ki of 22.6 nM. Also, the remaining activity at 1 µM in assay [4] was found to be 8.4%.

`CC(C)CCO[C@@H]1CCN(C[C@H]2CC3(CCCCC3)CO2)C1` [ZINC001196519317] had a Ki in assay [3] of 2.4 nM. For the same compound, the remaining activity at 1 µM in assay [4] came to 1.2%.

Take `Fc1c(CN2CCN(C[C@@H]3CCCO3)CC2)ccc(Br)c1Cl` [ZINC001237901728]: affinity in assay [3] was put at a Ki of 27 nM. Besides, in assay [4], the remaining activity at 1 µM stood at 4.5%.

As to `O[C@@H](COCc1ccccc1F)CN1CC(Cc2ccccc2C(F)(F)F)C1` [ZINC001254761628], the affinity in assay [3], expressed as Ki, was 4.7 nM. The remaining activity at 1 µM in assay [4] was found to be 1.1%.

Consider `C[C@H](C(=O)NC[C@]1(O)CCN(CCC2CCCC2)C1)c1ccccc1` [ZINC001376084945], for which the Ki in assay [3] was determined as 13.5 nM. Further, the remaining activity at 1 µM in assay [4] is 9.7%.

In turn, `CC[C@@H](CO)N1CCC(CCc2ccc(F)cc2F)CC1` [ZINC001460312963] yielded a Ki in assay [3] of 5.2 nM. Moreover, the remaining activity at 1 µM in assay [4] was 8%.

`O[C@@H](CN1CC[C@@H](C2CCCCC2)C1)CC1(O)CCCCC1` [ZINC001460371878] displayed a Ki in assay [3] of 7.92 nM. The remaining activity at 1 µM in assay [4] worked out at 10.9%.

Take ZINC450573233: in assay [2] (setting [5]), the Ki was determined as 4.3 nM.

Regarding ZINC895657866, the Ki in assay [2] (setting [5]) came out at 21.4 nM.
